Data on 37 molecules can be found in patent US6949574B2 (Bristol-Myers Squibb Company, priority 2002, dated 2005).

A value given as a limit tells only on which side of the number the result lay.

Usually IC50 stands for the midpoint of a concentration-inhibition curve.

The target of one assay is T1, human FAAH (Homo sapiens, UniProt O00519).
T1 construct: expressed in transfected cells; host or cells: H4 cells (H4-FAAH, Geneticin-selected); crude membrane homogenates
T1 sequence (O00519 1-579): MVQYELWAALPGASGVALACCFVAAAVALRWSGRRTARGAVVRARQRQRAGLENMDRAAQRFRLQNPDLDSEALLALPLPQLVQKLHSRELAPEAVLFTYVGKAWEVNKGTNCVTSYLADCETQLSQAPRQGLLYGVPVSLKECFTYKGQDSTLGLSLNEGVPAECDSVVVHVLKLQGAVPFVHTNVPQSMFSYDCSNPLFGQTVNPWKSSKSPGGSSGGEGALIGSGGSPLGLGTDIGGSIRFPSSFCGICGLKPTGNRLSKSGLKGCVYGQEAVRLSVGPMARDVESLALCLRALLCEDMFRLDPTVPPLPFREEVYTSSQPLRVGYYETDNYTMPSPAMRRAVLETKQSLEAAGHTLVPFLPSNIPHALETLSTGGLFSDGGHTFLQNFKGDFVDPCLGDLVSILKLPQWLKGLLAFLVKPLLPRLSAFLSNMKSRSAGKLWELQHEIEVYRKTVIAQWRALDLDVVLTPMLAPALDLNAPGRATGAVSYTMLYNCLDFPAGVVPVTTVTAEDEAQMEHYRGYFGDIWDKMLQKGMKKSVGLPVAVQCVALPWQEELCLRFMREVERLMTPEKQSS
The assay can be described thus: FAAH activity in membrane homogenates of H4-FAAH cells, [3H]-anandamide hydrolysis. It is filed as biochemical.
Conditions: not given
As for the experimental part:
Homogenates of crude membranes were prepared from H4 cells that express transfected human FAAH (H4-FAAH cells). Briefly, cells were grown in DMEM supplemented with 10% FBS and Geneticin at a final concentration of 500 μg/ml (Gibco BRL, Rockville, Md.). Confluent cultures of H4-FAAH cells were rinsed twice with phosphate-buffered saline [138 mM NaCl, 4.1 mM KCl, 5.1 mM Na2PO4, 1.5 mM KH2PO4 (pH 7.5), 37° C.] and incubated for 5 to 10 minutes at 4° C. in lysis buffer [1 mM sodium bicarbonate]. Cells were transferred from plates to polypropylene tubes (16×100 mm), homogenized and centrifuged at 32,000×g for 30 minutes. Pellets were resuspended by homogenization in lysis buffer and centrifuged at 32,000×g for 30 minutes. Pellets were resuspended in lysis buffer (15-20 μg protein/ml) then stored at −80° C. until needed. On the day of an experiment, membranes were diluted to 2.67 μg protein/ml in 125 mM Tris-Cl, pH 9.0.
Activity of FAAH was measured using a modification of the method described by Omeir et al., 1995 (Life Sci 56:1999, 1995). Membrane homogenates (240 ng protein) were incubated at room temperature for one hour with 1.67 nM anandamide [ethanolamine 1-^3H] (available from American Radiolabeled Chemical Inc., St Louis, Mo.) and 10 μM anandamide (available from Sigma/RBI, St. Louis, Mo.) in the absence and presence of inhibitors. The reaction was stopped by the addition of 1 volume of a solution of 1:1 methanol and dichloroethane. The mixture was shaken and then centrifuged at 1000×g for 15 minutes to separate the aqueous and organic phases. An aliquot of the aqueous phase, containing [^3H]-ethanolamine was withdrawn and counted by scintillation spectroscopy. Data were expressed as the percentage of [^3H]-ethanolamine formed versus vehicle, after subtraction of the background radioactivity determined in the presence of 10 μM arachidonyl trifluoromethyl ketone (ATFMK), an inhibitor of FAAH. IC50 values were determined using a four-parameter logistic equation for dose-response curves.
For the molecule `CCCCCCCCCOc1ccc(NC(=O)O/N=C/c2cccnc2)cc1` [Example 4, 3-Pyridinecarboxaldehyde, O-[[[4-(nonyloxy)phenyl]amino]carbonyl]oxime], the IC50 is less than 0.01 µM.
On the same count and under the same terms, the figure for `CCCCCCCCCCOc1ccc(NC(=O)Oc2ccccc2)cc1` [Example 101, 4-Decyloxyphenylcarbamic acid, phenyl ester] is less than 0.01 µM.

Staying with this assay, now noted: H4-FAAH cell membranes, 10 μM anandamide, room temperature, one hour; read-out: IC50.
Regarding `CCCCCOc1ccc(NC(=O)ON=C(C)C)cc1` [Example 8, 2-Propanone, O-[[(4-pentyloxyphenyl)amino]carbonyl]oxime], the half-maximal inhibitory concentration (IC50) was 0.01 to 0.1 µM.
On the same count and under the same terms, with `CCCCCCCOc1ccc(NC(=O)O/N=C/c2ccc(F)cc2)cc1` [Example 28, 4-Fluorobenzaldehyde, O-[[(4-heptyloxyphenyl)amino]carbonyl]oxime] the figure was less than 0.01 µM; with `CCCCOc1ccc(CNC(=O)Oc2cccc(Cl)c2)cc1` [Example 122, 4-(Butoxyphenylmethyl)carbamic acid, 3-chlorophenyl ester], 0.01 to 0.1 µM; with `CCCCOc1ccc(NC(=O)Oc2ccccc2OC)cc1` [Example 110, 4-Butoxyphenylcarbamic acid, 2-methoxyphenyl ester], greater than 0.5 µM.
In the case of `CCCCCCCCC(=O)Nc1ccc(NC(=O)O/N=C/c2ccccc2)cc1` [Example 136, Benzaldehyde, O-[[(4-Nonanoylamino-phenyl)amino]carbonyl]oxime], the half-inhibitory concentration (IC50) fell in the range of 0.01 to 0.1 µM.
Consider `CCCCCCCCCOc1ccc(NC(=O)O/N=C/c2cc(F)c(F)cc2F)cc1` [Example 56, 2,4,5-Trifluorobenzaldehyde, O-[[(4-nonyloxyphenyl)amino]carbonyl]oxime], for which the half-maximal inhibitory concentration (IC50) was less than 0.01 µM.
Turning to `O=C(Nc1ccc(-c2ccccc2)cc1)O/N=C/c1cccnc1` [Example 69, 3-Pyridinecarboxaldehyde, O-[[([1,1′-biphenyl]-4-yl)amino]carbonyl]oxime], the IC50 lay within 0.01 to 0.1 µM.
Same read-out and setting: with `O=C(Nc1ccc(Oc2ccccc2)cc1)O/N=C/c1cccnc1` [Example 71, 3-Pyridinecarboxaldehyde, O-[[(4-phenoxyphenyl)amino]carbonyl]oxime] the figure was less than 0.01 µM.
In the case of `CCCOc1ccc(NC(=O)O/N=C/c2ccccc2)cc1` [Example 10, Benzaldehyde, O-[[(4-propoxyphenyl)amino]carbonyl]oxime], the IC50 was less than 0.01 µM.
Same read-out and setting: with `O=C(Nc1ccc2oc3ccccc3c2c1)O/N=C/c1ccc(F)cc1` [Example 153, 4-Fluorobenzaldehyde, O-[[(2-dibenzofuranyl)amino]carbonyl]oxime] the figure was 0.01 to 0.1 µM.
Take `O=C(Nc1ccc(Oc2ccccc2)cc1)O/N=C/c1ccccc1` [Example 76, Benzaldehyde, O-[[(4-phenoxyphenyl)amino]carbonyl]oxime]: the half-maximal inhibitory concentration (IC50) was less than 0.01 µM.
Take `CCCCCCCCCCOc1ccc(NC(=O)ON=C(C)C)cc1` [Example 32, 2-Propanone, O-[[(4-decyloxyphenyl)amino]carbonyl]oxime]: the IC50 is less than 0.01 µM.
On the same count and under the same terms, with `CCCCOc1ccc(C(CC)NC(=O)Oc2ccccc2)cc1` (stereo not shown) [Example 134, [1-(4-Butoxy-phenyl)-propyl]-carbamic acid phenyl ester] the figure was 0.01 to 0.1 µM.
Still for that read-out and setting: the figure for `CCCCCCCOc1ccc(NC(=O)O/N=C/c2ccccc2)cc1` [Example 27, Benzaldehyde, O-[[(4-heptyloxyphenyl)amino]carbonyl]oxime] is less than 0.01 µM; for `CCCCCCCCCOc1ccc(NC(=O)O/N=C/c2ccc(F)cc2F)cc1` [Example 51, 2,4-Difluorobenzaldehyde, O-[[(4-nonyloxyphenyl)amino]carbonyl]oxime] it is less than 0.01 µM.
As to `O=C(Nc1cccc(Oc2ccccc2)c1)O/N=C/c1ccccc1` [Example 91, Benzaldehyde, O-[[(3-phenoxyphenyl)amino]carbonyl]oxime], the IC50 was less than 0.01 µM.
Still for that read-out and setting: with `CCCCOc1ccc(CNC(=O)O/N=C/c2ccccc2)cc1` [Example 62, Benzaldehyde, O-[[(4-butoxyphenylmethyl)amino]carbonyl]oxime] the figure was 0.01 to 0.1 µM; with `O=C(Nc1ccccc1Oc1ccccc1)O/N=C/c1cccnc1` [Example 92, 3-Pyridinecarboxaldehyde, O-[[(2-phenoxyphenyl)amino]carbonyl]oxime], greater than 0.5 µM; with `O=C(Nc1ccc(Oc2ccccn2)cc1)O/N=C/c1cccnc1` [Example 147, 3-Pyridinecarboxaldehyde, O-[[[4-[(2-pyridinyl)oxy]phenyl]amino]carbonyl]oxime], 0.101 to 0.5 µM.
Still for that read-out and setting: the figure for `CCCCCCCCCOc1ccc(NC(=O)O/N=C/c2c(F)cccc2F)cc1` [Example 50, 2,6-Difluorobenzaldehyde, O-[[(4-nonyloxyphenyl)amino]carbonyl]oxime] is less than 0.01 µM; for `CCCCCCCCOc1ccc(NC(=O)O/N=C/c2ccccc2)cc1` [Example 45, Benzaldehyde, O-[[(4-octyloxyphenyl)amino]carbonyl]oxime] it is less than 0.01 µM.
Still for that read-out and setting: with `CCCCOc1ccc(NC(=O)ON=C(C)C)cc1` [Example 60, 2-Propanone, O-[[(4-butoxyphenyl)amino]carbonyl]oxime] the figure was 0.01 to 0.1 µM; with `O=C(Nc1ccc(OCCc2ccccc2)cc1)O/N=C/c1ccc(F)cc1` [Example 82, 4-Fluorobenzaldehyde, O-[[[4-(2-phenylethoxy)phenyl]amino]carbonyl]oxime], less than 0.01 µM; with `O=C(Nc1cccc(Oc2ccccc2)c1)O/N=C/c1ccc(F)cc1` [Example 88, 4-Fluorobenzaldehyde, O-[[(3-phenoxyphenyl)amino]carbonyl]oxime], less than 0.01 µM.
On to `CCc1ccc(-c2ccc(NC(=O)O/N=C/c3ccccc3)cc2)cc1` [Example 74, Benzaldehyde, O-[[(4′-ethyl-[1,1′-biphenyl]-4-yl)amino]carbonyl]oxime], for which the half-maximal inhibitory concentration (IC50) was less than 0.01 µM.
On the same count and under the same terms, with `CCCCOc1ccc(NC(=O)Oc2ccccc2F)cc1` [Example 107, 4-Butoxyphenylcarbamic acid, 2-fluorophenyl ester] the figure was 0.101 to 0.5 µM.
Still for that read-out and setting: the figure for `O=C(Nc1cccc(Oc2ccccc2)c1)O/N=C/c1cccnc1` [Example 87, 3-Pyridinecarboxaldehyde, O-[[(3-phenoxyphenyl)amino]carbonyl]oxime] is less than 0.01 µM; for `CCCOc1ccc(NC(=O)O/N=C/c2cccnc2)cc1` [Example 16, 3-Pyridinecarboxaldehyde, O-[[(4-propoxyphenyl)amino]carbonyl]oxime] it is 0.01 to 0.1 µM; for `O=C(Nc1ccc(Oc2ccccn2)cc1)O/N=C/c1ccc(F)cc1` [Example 148, 4-Fluorobenzaldehyde, O-[[[4-[(2-pyridinyl)oxy]phenyl]amino]carbonyl]oxime] it is 0.01 to 0.1 µM.
Still for that read-out and setting: with `CCCCCOc1ccc(NC(=O)O/N=C/c2cccnc2)cc1` [Example 17, 3-Pyridinecarboxaldehyde, O-[[(4-pentyloxyphenyl)amino]carbonyl]oxime] the figure was less than 0.01 µM; with `O=C(Nc1ccc(OCc2ccccc2)cc1)O/N=C/c1cccnc1` [Example 78, 3-Pyridinecarboxaldehyde, O-[[[4-(phenylmethoxy)phenyl]amino]carbonyl]oxime], less than 0.01 µM.
For `O=C(Nc1ccc(Oc2ccccc2)cc1)O/N=C/c1ccc(F)cc1` [Example 77, 4-Fluorobenzaldehyde, O-[[(4-phenoxyphenyl)amino]carbonyl]oxime], the IC50 is less than 0.01 µM.
Turning to `O=C(Nc1ccc(Oc2ccncc2)cc1)O/N=C/c1ccc(F)cc1` [Example 146, 4-Fluorobenzaldehyde, O-[[[4-[(4-pyridinyl)oxy]phenyl]amino]carbonyl]oxime], the IC50 was in the range of 0.101 to 0.5 µM.
The same measure, in the same setting: the figure for `CCCCCCCCCOc1ccc(NC(=O)O/N=C/c2ccc(C(F)(F)F)cc2)cc1` [Example 53, 4-(Trifluoromethyl)benzaldehyde, O-[[(4-nonyloxyphenyl)amino]carbonyl]oxime] is less than 0.01 µM; for `CCCCCCCOc1ccc(NC(=O)ON=C(C)C)cc1` [Example 26, 2-Propanone, O-[[(4-heptyloxyphenyl)amino]carbonyl]oxime] it is less than 0.01 µM.
